Measured values from patent publication US9757385B2, “Method of treating leukemia using pharmaceutical formulation containing thienotriazolodiazepine compounds” (ONCOETHIX GmbH, priority 2013, dated 2017).
Counter-ions that a name gives are not always drawn.

Legend:
[1] = tested on: HDAC; settings: cited from earlier work
[2] = molecular target: HDAC3 (Homo sapiens, UniProt O15379); settings: cited from earlier work
[3] = molecular target: FKBP12 (Homo sapiens, UniProt P62942); settings: mTOR inhibitor of FKBP12; cited from earlier work
[4] = tested on: PI3K/mTOR; settings: dual PI3K/mTOR inhibitor; cited from earlier work
[5] = tested on: Akt phosphorylation on T308; settings: cited from earlier work
[6] = tested on: Akt phosphorylation on S473; settings: cited from earlier work
[7] = tested on: MOLT-4 cells; settings: in MOLT-4 cells; cited from earlier work
[8] = tested on: Reh cells; settings: in Reh cells; cited from earlier work
[9] = molecular target: mTOR (Homo sapiens, UniProt P42345); settings: cited from earlier work
[10] = tested on: HL60; experiment: MTT assay, anti-proliferative effect; assay type: cell-based; settings: Homo sapiens, HL-60; HL60, 72-h exposure; range given for HL60, U937 and Jurkat together
Procedure: (§1) MTT assays were performed after 72 hours exposure. Protein levels were analyzed by Western Blot using commercial antibodies. RNA was extracted using the Qiagen RNAEasy and RT-PCR was performed using Fast SYBR Green on a StepOnePlus Real-Time PCR System. Combination effects were evaluated in four cell lines (HL60, U937, Jurkat and K562); compound (1-1) was administered with daunorubicin, azacytidine, dexamethasone, cytarabine or methotrexate. The 48 h Combination Index (CI) was determined by median effect plot analysis using CalcuSyn software expressed as the median and range of CI values among cell lines (Chou & Talalay analysis). CI<1 reflects synergy effects, CI=1 reflects additivity and CI>1 reflects antagonist effects.
(§2) Four established human cell lines derived from acute (HL60, U937), chronic (K562) myeloid leukemia, and acute lymphoblastic leukemia (Jurkat) were treated with increasing compound (1-1) doses. MTT assays were performed after 72 h exposure. GI50 and Emax values were calculated with the equation for sigmoidal dose response using Prism 5.00. Results are the mean±95% CI of at least 3 independent experiments performed in triplicate. […] Protein levels were analyzed by Western Blot using commercial antibodies. For cell cycle analysis and apoptosis induction, cells were stained with PI or Annexin V respectively, and analyzed using a FACScan flow cytometer. RT-PCR was performed using Fast SYBR Green Master Mix on a StepOnePlus Real-Time PCR System. […] Compound (1-1) combination studies were performed in cell lines exposed for 48 h to increasing doses of compound (1-1) alone or in combination several conventional anti-leukemic drugs, such as epigenetic modulators, steroids, m-TOR inhibitors and classical cytotoxic agents, and assessed using the Chou & Talalay method. […] The Combination Index (CI) was determined by median effect plot analysis using CalcuSyn software. […]

[11] = tested on: Jurkat; experiment: MTT assay, anti-proliferative effect; assay type: cell-based; settings: Homo sapiens, 72-h exposure, range given for HL60, U937 and Jurkat together
Procedure: as §1, §2

[12] = tested on: U937; experiment: MTT assay, anti-proliferative effect; assay type: cell-based; settings: Homo sapiens, U-937; U937, 72-h exposure; range given for HL60, U937 and Jurkat together
Procedure: as §1, §2

[13] = tested on: K-562, NALM-1, CCRF-CEM, MOLT-3 and -4; experiment: MTT assay, anti-proliferative effect, rest of the panel; assay type: cell-based; settings: Homo sapiens; the rest of the eight cell lines, 72-h exposure
Procedure: as §1

[14] = tested on: compound (1-1) sensitive cell lines (HL60, U937 and Jurkat); experiment: Cell cycle analysis and apoptosis induction; assay type: cell-based, human
Procedure: Four established human cell lines derived from acute (HL60, U937), chronic (K562) myeloid leukemia, and acute lymphoblastic leukemia (Jurkat) were treated with increasing compound (1-1) doses. MTT assays were performed after 72 h exposure. GI50 and Emax values were calculated with the equation for sigmoidal dose response using Prism 5.00. Results are the mean±95% CI of at least 3 independent experiments performed in triplicate. […] Protein levels were analyzed by Western Blot using commercial antibodies. For cell cycle analysis and apoptosis induction, cells were stained with PI or Annexin V respectively, and analyzed using a FACScan flow cytometer. RT-PCR was performed using Fast SYBR Green Master Mix on a StepOnePlus Real-Time PCR System. Cell cycle, apoptosis induction and qRT-PCR results are the mean±SD of at least 3 independent experiments, where *p<0.05, **p<0.001 and ***p<0.0001 versus control cells (0.1% DMSO), employing Anova then Dunnett's Multiple Comparison Test. Compound (1-1) combination studies were performed in cell lines exposed for 48 h to increasing doses of compound (1-1) alone or in combination several conventional anti-leukemic drugs, such as epigenetic modulators, steroids, m-TOR inhibitors and classical cytotoxic agents, and assessed using the Chou & Talalay method. For the sequential combination schemes, cell lines were exposed to azacytidine or panobinostat for 48 or 72 h, washed with drug-free medium and then treated with compound (1-1) for 24 or 48 h. The Combination Index (CI) was determined by median effect plot analysis using CalcuSyn software. CI<1 reflects synergy, CI=1 additivity and CI>1 antagonist effects. Results represent the median and range of 4 independent experiments performed in triplicate.

[15] = tested on: c-MYC; experiment: c-MYC mRNA (RT-PCR) and protein (Western Blot) in sensitive cell lines; assay type: cell-based, human
Procedure: as §1
(§3) Four established human cell lines derived from acute (HL60, U937), chronic (K562) myeloid leukemia, and acute lymphoblastic leukemia (Jurkat) were treated with increasing compound (1-1) doses. MTT assays were performed after 72 h exposure. GI50 and Emax values were calculated with the equation for sigmoidal dose response using Prism 5.00. […] Protein levels were analyzed by Western Blot using commercial antibodies. For cell cycle analysis and apoptosis induction, cells were stained with PI or Annexin V respectively, and analyzed using a FACScan flow cytometer. […] The Combination Index (CI) was determined by median effect plot analysis using CalcuSyn software. […]

[16] = tested on: c-MYC; experiment: c-MYC RNA and protein in resistant cell line K562; assay type: cell-based, human
Procedure: as §1, §3

[17] = tested on: BRD2 and BRD4; experiment: BRD2 and BRD4 mRNA and protein in Jurkat cells; assay type: cell-based, human
[18] = tested on: HL60, U937, Jurkat and K562; experiment: Combination Index, Chou & Talalay median effect analysis; assay type: cell-based, human; settings: OTX015-sensitive and resistant leukemic cells lines
[19] = molecular target: PI3Kβ (p110β) (Homo sapiens, UniProt P42338); settings: cited from earlier work
[20] = molecular target: PI3Kγ (p110γ) (Homo sapiens, UniProt P48736); settings: cited from earlier work
[21] = sensitive leukemic cells, 48 h exposure to 500 nM (Example 8)

Chain of FKBP12 (P62942 whole entry, species assumed): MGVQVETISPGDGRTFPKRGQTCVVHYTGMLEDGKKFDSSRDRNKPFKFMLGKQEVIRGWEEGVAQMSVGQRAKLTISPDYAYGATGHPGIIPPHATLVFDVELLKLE
Chain of PI3Kγ (p110γ) (P48736 whole entry, species assumed): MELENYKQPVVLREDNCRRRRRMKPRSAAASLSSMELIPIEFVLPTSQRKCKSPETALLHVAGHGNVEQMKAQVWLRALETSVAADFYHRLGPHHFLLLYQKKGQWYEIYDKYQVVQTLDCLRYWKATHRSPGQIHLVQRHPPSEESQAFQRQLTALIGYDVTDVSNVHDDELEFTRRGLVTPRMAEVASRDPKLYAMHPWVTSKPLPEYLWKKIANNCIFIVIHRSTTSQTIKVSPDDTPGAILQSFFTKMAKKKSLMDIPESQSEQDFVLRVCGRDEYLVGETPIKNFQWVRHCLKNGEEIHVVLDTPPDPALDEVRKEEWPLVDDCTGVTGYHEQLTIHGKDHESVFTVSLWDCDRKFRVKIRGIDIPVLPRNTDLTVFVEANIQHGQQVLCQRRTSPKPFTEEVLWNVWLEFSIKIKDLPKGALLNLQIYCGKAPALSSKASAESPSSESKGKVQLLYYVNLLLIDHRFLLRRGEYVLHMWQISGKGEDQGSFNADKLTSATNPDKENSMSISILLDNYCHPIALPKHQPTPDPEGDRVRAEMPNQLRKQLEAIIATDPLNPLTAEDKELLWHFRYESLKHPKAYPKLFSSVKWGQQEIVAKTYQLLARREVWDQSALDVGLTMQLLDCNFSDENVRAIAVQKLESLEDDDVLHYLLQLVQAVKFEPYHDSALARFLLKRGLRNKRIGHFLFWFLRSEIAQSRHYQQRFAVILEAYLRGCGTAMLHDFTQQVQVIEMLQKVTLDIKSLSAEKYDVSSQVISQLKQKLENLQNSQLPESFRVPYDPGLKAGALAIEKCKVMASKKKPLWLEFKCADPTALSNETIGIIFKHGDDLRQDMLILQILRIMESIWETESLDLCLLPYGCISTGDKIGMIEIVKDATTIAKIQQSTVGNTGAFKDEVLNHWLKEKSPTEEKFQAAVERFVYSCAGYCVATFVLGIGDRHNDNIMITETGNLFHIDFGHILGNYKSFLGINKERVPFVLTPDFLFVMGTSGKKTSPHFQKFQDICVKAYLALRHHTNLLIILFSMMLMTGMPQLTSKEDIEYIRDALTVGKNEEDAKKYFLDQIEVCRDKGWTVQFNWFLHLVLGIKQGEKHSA
Chain of HDAC3 (O15379 whole entry, species assumed): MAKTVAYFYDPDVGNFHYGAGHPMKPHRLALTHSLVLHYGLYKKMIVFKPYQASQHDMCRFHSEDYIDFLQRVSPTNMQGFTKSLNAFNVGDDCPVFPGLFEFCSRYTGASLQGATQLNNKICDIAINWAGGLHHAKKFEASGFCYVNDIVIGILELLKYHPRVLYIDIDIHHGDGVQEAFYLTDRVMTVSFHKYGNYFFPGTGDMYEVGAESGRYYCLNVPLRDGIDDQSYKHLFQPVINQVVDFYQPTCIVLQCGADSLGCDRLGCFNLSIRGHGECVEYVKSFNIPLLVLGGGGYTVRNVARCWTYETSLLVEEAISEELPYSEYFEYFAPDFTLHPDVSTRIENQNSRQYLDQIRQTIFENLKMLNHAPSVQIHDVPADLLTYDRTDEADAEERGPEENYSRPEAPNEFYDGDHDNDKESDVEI
Chain of HDAC3 (Q9Y618 395-489 partner limits assumed, species assumed): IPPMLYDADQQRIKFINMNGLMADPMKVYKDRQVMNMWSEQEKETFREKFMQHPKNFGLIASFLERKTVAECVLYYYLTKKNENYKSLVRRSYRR
Chain of PI3Kβ (p110β) (P42338 whole entry, species assumed): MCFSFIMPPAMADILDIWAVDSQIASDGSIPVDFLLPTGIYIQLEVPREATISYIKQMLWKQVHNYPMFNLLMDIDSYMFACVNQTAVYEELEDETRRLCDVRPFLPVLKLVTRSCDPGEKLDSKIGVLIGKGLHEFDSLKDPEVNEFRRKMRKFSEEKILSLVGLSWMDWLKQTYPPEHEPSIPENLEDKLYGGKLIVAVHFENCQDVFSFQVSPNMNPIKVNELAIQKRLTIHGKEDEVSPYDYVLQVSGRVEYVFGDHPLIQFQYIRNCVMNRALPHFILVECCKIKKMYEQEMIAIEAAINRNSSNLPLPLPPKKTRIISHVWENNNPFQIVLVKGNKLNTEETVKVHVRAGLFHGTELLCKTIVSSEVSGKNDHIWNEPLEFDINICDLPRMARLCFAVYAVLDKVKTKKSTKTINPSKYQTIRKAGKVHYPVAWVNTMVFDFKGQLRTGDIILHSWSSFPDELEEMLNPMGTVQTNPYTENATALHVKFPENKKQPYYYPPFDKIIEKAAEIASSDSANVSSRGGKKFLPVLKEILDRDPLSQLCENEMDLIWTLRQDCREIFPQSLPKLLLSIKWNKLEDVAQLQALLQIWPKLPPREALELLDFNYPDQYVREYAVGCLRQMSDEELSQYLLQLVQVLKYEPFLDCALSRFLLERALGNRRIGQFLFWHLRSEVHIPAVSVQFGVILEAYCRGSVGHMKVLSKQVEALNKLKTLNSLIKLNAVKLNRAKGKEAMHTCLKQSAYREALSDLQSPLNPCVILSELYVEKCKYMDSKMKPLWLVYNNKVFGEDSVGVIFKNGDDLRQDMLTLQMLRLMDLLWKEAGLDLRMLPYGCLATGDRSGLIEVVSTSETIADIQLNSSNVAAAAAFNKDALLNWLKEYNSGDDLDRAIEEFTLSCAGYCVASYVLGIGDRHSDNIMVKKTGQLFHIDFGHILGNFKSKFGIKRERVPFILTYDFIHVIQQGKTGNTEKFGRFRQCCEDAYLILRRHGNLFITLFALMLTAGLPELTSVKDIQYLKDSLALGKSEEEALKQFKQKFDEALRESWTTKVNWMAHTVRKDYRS
Chain of PI3Kβ (p110β) (P27986 whole entry partner, species assumed): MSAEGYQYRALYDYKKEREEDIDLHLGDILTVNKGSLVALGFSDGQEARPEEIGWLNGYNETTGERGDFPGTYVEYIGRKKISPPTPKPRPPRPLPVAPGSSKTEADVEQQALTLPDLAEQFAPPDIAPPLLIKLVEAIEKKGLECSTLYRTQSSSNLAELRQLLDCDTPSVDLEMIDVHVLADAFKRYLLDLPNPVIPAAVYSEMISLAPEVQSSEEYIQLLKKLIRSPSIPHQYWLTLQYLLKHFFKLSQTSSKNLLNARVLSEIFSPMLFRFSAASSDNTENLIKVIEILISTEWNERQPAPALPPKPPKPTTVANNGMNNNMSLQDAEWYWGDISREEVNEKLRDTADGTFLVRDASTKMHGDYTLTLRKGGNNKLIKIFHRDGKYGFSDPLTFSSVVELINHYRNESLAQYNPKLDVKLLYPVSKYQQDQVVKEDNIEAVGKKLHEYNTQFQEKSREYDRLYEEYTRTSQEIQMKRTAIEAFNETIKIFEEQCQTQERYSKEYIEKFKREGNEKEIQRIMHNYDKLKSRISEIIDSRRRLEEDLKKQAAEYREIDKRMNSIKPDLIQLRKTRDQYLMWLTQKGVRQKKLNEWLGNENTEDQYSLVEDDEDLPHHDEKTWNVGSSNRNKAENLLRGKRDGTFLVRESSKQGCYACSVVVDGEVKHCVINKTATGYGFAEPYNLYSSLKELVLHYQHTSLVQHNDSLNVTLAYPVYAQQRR

Question: With CC(C)[C@H](C(=O)Nc1ccc(C(=O)NO)cc1)c1ccccc1 [AR-42, (S)-N-hydroxy-4-(3-methyl-2-phenylbutanamido)benzamide] as the compound, how does the IC50 [1] read?
Answer: 30 nM

Question: For Cc1cc(Cl)ccc1OCCCC(=O)NO [Droxinostat, 4-(4-Chloro-2-methylphenoxy)-N-hydroxybutanamide], which IC50 [2] is on record?
Answer: 16900 nM

Question: Which IC50 [3] does the source give for CO[C@H]1C[C@@H]2CC[C@@H](C)[C@@](O)(O2)C(=O)C(=O)N2CCCC[C@H]2C(=O)O[C@H]([C@H](C)C[C@@H]2CC[C@@H](OCCO)[C@H](OC)C2)CC(=O)[C@H](C)/C=C(\C)[C@@H](O)[C@@H](OC)C(=O)[C@H](C)C[C@H](C)/C=C/C=C/C=C/1C [Everolimus] here?
Answer: 1.6 to 2.4 nM

Question: For CCN(CC)Cc1ccc2cc(COC(=O)Nc3ccc(C(=O)NO)cc3)ccc2c1 [ITF2357], which IC50 [1] is on record?
Answer: 7.5 to 16 nM

Question: With O=C(/C=C/c1ccc(CN(CCO)CCc2c[nH]c3ccccc23)cc1)NO [LAQ824] as the compound, how does the IC50 [1] read?
Answer: 32 nM

Question: For CN(C)c1ccc(C(=O)NCCCCCCC(=O)NO)cc1 [M344], which IC50 [1] is on record?
Answer: 100 nM

Question: With Cn1c(/C=C/C(=O)NO)ccc1/C=C/C(=O)c1cccc(F)c1 [MC1568] as the compound, how does the IC50 [1] read?
Answer: 220 nM

Question: For COc1ccc(-c2ccc3ncc4c(c3c2)n(-c2ccc(N3CCNCC3)c(C(F)(F)F)c2)c(=O)n4C)cn1 [NVP-BGT226], which IC50 [4] is on record?
Answer: 1 nM

Question: Which IC50 [5] does the source give for COc1ccc(-c2cc3c(C)nc(N)nc3n([C@H]3CC[C@H](OCCO)CC3)c2=O)cn1 [PF-04691502] here?
Answer: 7.5 nM

Question: What about the IC50 [6] of the same compound?
Answer: 3.8 nM

Question: Which IC50 [7] does the source give for Cc1[nH]c2ccccc2c1CCNCc1ccc(/C=C/C(=O)NO)cc1 [Panobinostat] here?
Answer: 5 nM

Question: And the IC50 [8]?
Answer: 20 nM

Question: For CCCCc1nc2cc(/C=C/C(=O)NO)ccc2n1CCN(CC)CC [SB939, (E)-3-(2-butyl-1-(2-(diethylamino)ethyl)-1H-benzo[d]imidazol-5-yl)-N-hydioxyacrylamide], which IC50 [1] is on record?
Answer: 40 to 140 nM

Question: For CO[C@H]1C[C@@H]2CC[C@@H](C)[C@@](O)(O2)C(=O)C(=O)N2CCCC[C@H]2C(=O)O[C@H]([C@H](C)C[C@@H]2CC[C@@H](OC(=O)C(C)(CO)CO)[C@H](OC)C2)CC(=O)[C@H](C)/C=C(\C)[C@@H](O)[C@@H](OC)C(=O)[C@H](C)C[C@H](C)/C=C/C=C/C=C/1C [Temsirolimus], which IC50 [9] is on record?
Answer: 1.76 nM

Question: For CCCC(CCC)C(=O)O [Valproic acid sodium salt], which IC50 [1] is on record?
Answer: 400000 nM

Question: With Cc1sc2c(c1C)C(c1ccc(Cl)cc1)=N[C@@H](CC(=O)Nc1ccc(O)cc1)c1nnc(C)n1-2 [compound (1-1), 2-[(6S)-4-(4-chlorophenyl)-2,3,9-trimethyl-6H-thienol[3,2-f]-[1,2,4]triazolo[4,3-a][1,4]diazepin-6-yl]-N-(4-hydroxyphenyl)acetamide dihydrate] as the compound, how does the GI50 [10] read?
Answer: 230 to 384 nM

Question: What about the GI50 [11] of the same compound?
Answer: 230 to 384 nM

Question: And the GI50 [12]?
Answer: 230 to 384 nM

Question: What about the GI50 [13] of the same compound?
Answer: ≥ 1000 nM

Question: What about the induction of apoptosis ([14]; sensitive cell lines (Example 7)) of the same compound?
Answer: without induction of apoptosis

Question: And the cell cycle effect ([14]; sensitive cell lines, time-dependent (Example 7))?
Answer: cell cycle arrest in G1

Question: And the cell cycle effect [14, 21]?
Answer: increased proportion of cells in cell cycle phase G0/G1

Question: And the induction of apoptosis [14, 21]?
Answer: slight induction of apoptosis

Question: What about the “c-MYC mRNA and protein levels” value ([15]; sensitive cell lines (Example 8)) of the same compound?
Answer: rapid and sustained downregulation

Question: What about the “cMYC mRNA and protein levels” value ([15]; sensitive cell lines, 500 nM, after 6-h and up to 72-h treatment) of the same compound?
Answer: down-regulated

Question: What about the “levels of c-MYC RNA” value ([16]; K562, after 4-h and 24-h exposure) of the same compound?
Answer: decreased levels

Question: And the cMYC protein levels ([16]; K562, even after 72 h of treatment)?
Answer: constant

Question: What about the “BRD2 and BRD4 protein levels” value [17] of the same compound?
Answer: without modifying protein levels

Question: And the “mRNA levels of BRD2 and BRD4” value [17]?
Answer: up-regulation

Question: What about the “effect in concomitant combination with demethylating agents, HDAC and mTOR inhibitors, glucocorticoids, and conventional cytotoxic drugs” value [18] of the same compound?
Answer: strong synergistic effects

Question: With “(3S,6S,9S,15aR)-9-((R)-sec-butyl)-6-((1-methoxy-1H-indol-2-yl)methyl)-3-(6-oxooetyl)decahydro-1H-pyrido[1,2-a][1,4,7,10]tetraazacyclododecine-1,4,7,10(12H)-tetraone [Apicidin]” as the compound, how does the IC50 [1] read?
Answer: 0.7 nM

Question: Which results are given for GSK2126458?
Answer: Ki [19]: 0.13 nM; Ki [20]: 0.024 nM
